Structures can show the parent of a compound that is named as a salt.

The experiment deals with T1, Bradykinin receptor (Cavia porcellus, UniProt O70526).
T1 construct: The ileum was removed and homogenized in buffer; from tissue; host or cells: guinea pig ileum, crude membrane suspension (male Hartley strain, given 'Hartly' in the source)
T1 sequence (O70526 1-372): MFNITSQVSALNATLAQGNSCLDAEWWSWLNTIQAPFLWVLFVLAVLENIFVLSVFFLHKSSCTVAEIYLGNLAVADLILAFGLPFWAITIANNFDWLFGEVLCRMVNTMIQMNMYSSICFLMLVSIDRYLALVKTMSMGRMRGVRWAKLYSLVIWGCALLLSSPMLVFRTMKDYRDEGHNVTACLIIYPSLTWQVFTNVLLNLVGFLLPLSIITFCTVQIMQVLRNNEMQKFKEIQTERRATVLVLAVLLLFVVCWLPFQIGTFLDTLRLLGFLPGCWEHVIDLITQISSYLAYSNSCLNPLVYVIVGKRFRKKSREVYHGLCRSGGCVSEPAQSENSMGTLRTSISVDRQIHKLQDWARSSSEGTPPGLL
Put plainly: 3H-Bradykinin receptor binding (crude ileum membrane). To be noted: concentration: 1 × 10^-5 M; 0.06 nM 3H-Bradykinin; guinea pig ileum membrane; room temperature, 60 minutes. Further details: species or system guinea pig (male Hartly strain). The procedure:
^3 H-Bradykinin receptor binding
(a) Crude ileum membrane preparation
Male Hartly strain guinea pigs were sacrificed by decapitation. The ileum was removed and homogenized in buffer (50 mM trimethylaminoethanesulfonic acid (TES), 1 mM 1,10-phenanthroline pH 6.8). The homogenate was centrifuged (1000 xg, 20 minutes) to remove tissue clumps and the supernatant was centrifuges (100,000 xg, 60 minutes) to yield a pellet. The pellet was resuspended in buffer (50 mM TES, 1 mM 1,10-phenanthroline,140 mg/l bacitracin, 1 mM dithiothreiol, 0.1% bovine serum albumin pH 6.8) and homogenized with a glass-teflon homogenizer to yield suspension which was referred to as crude membrane suspension. The obtained membrane suspension was stored at -80° C. until use.
(b) ^3 H-Bradykinin binding to the membrane
The frozen crude membrane suspension was thawed. In binding assays, ^3 H-Bradykinin (0.06 nM) and drug (1×10^-5 M) were incubated with 50 μl of the membrane suspension at room temperature for 60 minutes in a final volume of 250 μl. Separation of receptor-bound from free 3H-Bradykinin is achieved by immediate filtration under vacuum and washed three times with 5 ml of ice-cold buffer (50 mM Tris-HCl pH 7.5). Non-specific binding was defined as binding in the presence of 0.1 μM Bradykinin. The radioactivity retained on rinsed filters was determined by a liquid-scintillation counter.

As to `CNC(=O)c1ccc(/C=C/C(=O)NCC(=O)N(C)c2ccc(C)c(COc3cccc4c3nc(C(C)=O)n4C)c2C)cc1` [15-(9) hydrochloride], the “Inhibition % of ^3 H-Bradykinin binding” value was 94%.
Turning to `CNC(=O)c1ccc(/C=C/C(=O)NCC(=O)N(C)c2ccc(Cl)c(COc3cccc4c(C)c(C)oc34)c2Cl)cc1` [15-(20), 7-[2,6-Dichloro-3-[N-[4-(methylcarbamoyl)cinnamoylglycyl]-N-methylamino]benzyloxy]-2,3-dimethylbenzofuran], the “Inhibition % of ^3 H-Bradykinin binding” value amounted to 98%.
As for `CNC(=O)c1ccc(/C=C/C(=O)NCC(=O)N(C)c2ccc(Cl)c(COc3cccc4c3nc(C)n4C)c2Cl)cc1` [Example 7, 4-[2,6-dichloro-3-[N-methyl-N-[4-(methyl-carbamoyl)cinnamoylglycy]amino]benzyloxy]-1,2-dimethyl-1H-benzimidazole], the figure is 99%.

The values above are taken from patent publication US6194396A, “Benzimidazole compounds as bradykinin antagonists” (Fujisawa Pharmaceutical Co., Ltd., priority 1994, dated 2001).
